These results are taken from patent US11351168B1 (Celgene CAR LLC, priority 2008, dated 2022).

Like-named read-outs stand apart in the source and are kept apart here. Bounds are passed on as bounds.

The assay relates to BTK signaling in Ramos cells. The assay can be described thus: BTK Ramos cellular assay (phosphorylation of BTK substrate PLCγ2). It counts as cell-based, human. The conditions noted are these: 1 hour compound, anti-IgM stimulation, read-out: BTK Inhibition (Ramos cellular). Here is the method:
Compounds I-2, I-4, and I-7 were assayed in Ramos human Burkitt lymphoma cells. Ramos cells were grown in suspension in T225 flasks, spun down, resuspended in 50 ml serum-free media and incubated for 1 hour. Compound was added to Ramos cells in serum free media to a final concentration of 1, 0.1, 0.01, or 0.001 μM. Ramos cells were incubated with compound for 1 hour, washed again and resuspended in 100 ul serum-free media. Cells were then stimulated with 1 μg of goat F(ab′)2 Anti-Human IgM and incubated on ice for 10 minutes to activate B cell receptor signaling pathways. After 10 minutes, the cells were washed once with PBS and then lysed on ice with Invitrogen Cell Extraction buffer. 16 μg total protein from lysates were loaded on gel and blots were probed for phosphorylation of the BTK substrate PLCγ2.

With `C=CC(=O)Nc1cccc(Nc2nc(Nc3ccc(OCCO)nc3)ncc2C(C)=O)c1` [Compound I-121, N-(3-{5-Acetyl-2-[6-(2-hydroxy-ethoxy)-pyridin-3-ylamino]-pyrimidin-4-ylamino}-phenyl)-acrylamide], the IC50 (Homo sapiens) fell in the range of 10 to 100 nM.
The same measure, in the same setting: the result for `C=CC(=O)N1CCOc2ccc(Nc3nc(Nc4ccc(OCCO)nc4)ncc3C(C)=O)cc21` [Compound I-128, 1-(6-{5-Acetyl-2-[6-(2-hydroxy-ethoxy)-pyridin-3-ylamino]-pyrimidin-4-ylamino}-2,3-dihydro-benzo[1,4]oxazin-4-yl)-propenone] reads 10 to 100 nM; that for `C=CC(=O)Nc1cccc(Nc2nc(Nc3ccc(OCC(C)(C)O)c(F)c3)ncc2F)c1` [Compound I-315, N-(3-(5-fluoro-2-(3-fluoro-4-(2-hydroxy-2-methylpropoxy)phenylamino)pyrimidin-4-ylamino)phenyl)acrylamide], below 10 nM.
Same read-out and setting: the result for `C=CC(=O)N1CCOc2ccc(Nc3nc(Nc4ccc(OCCOC)cc4)ncc3C(C)=O)cc21` [Compound I-150, 1-(6-{5-Acetyl-2-[4-(2-methoxy-ethoxy)-phenylamino]-pyrimidin-4-ylamino}-2,3-dihydro-benzo[1,4]oxazin-4-yl)-propenone] reads 10 to 100 nM.
The same measure, in the same setting: then `C=CC(=O)Nc1cccc(Nc2nc(Nc3ccc(OCCCS(C)(=O)=O)c(F)c3)ncc2F)c1` [Compound I-318, N-(3-(5-fluoro-2-(3-fluoro-4-(3-(methylsulfonyl)propoxy)phenylamino)pyrimidin-4-ylamino)phenyl)acrylamide], with below 10 nM.
For `C=CC(=O)N1CCc2ccc(Nc3nc(Nc4ccc(OC)nc4)ncc3F)cc21` [Compound I-166, 1-(6-(5-fluoro-2-(6-methoxypyridin-3-ylamino)pyrimidin-4-ylamino)indolin-1-yl)prop-2-en-1-one], under “Homo sapiens”, the IC50 lay in the range of 10 to 100 nM.
The same measure, in the same setting: the result for `C=CC(=O)Nc1cccc(Oc2nc(Nc3ccc(OC)nc3)ncc2C(C)=O)c1` [Compound I-188, N-{3-[5-Acetyl-2-(6-methoxy-pyridin-3-ylamino)-pyrimidin-4-yloxy]-phenyl}-acrylamide] reads below 10 nM.
Consider `C=CC(=O)N1CCOc2ccc(Nc3nc(Nc4ccc5cn[nH]c5c4)ncc3C(C)=O)cc21` [Compound I-153, 1-{6-[5-Acetyl-2-(1H-indazol-6-ylamino)-pyrimidin-4-ylamino]-2,3-dihydro-benzo[1,4]oxazin-4-yl}-propenone], for which the IC50 is below 10 nM.
As to `C=CC(=O)Nc1cccc(Nc2nc(Nc3ccc(O[C@@H]4CCOC4)c(F)c3)ncc2F)c1` [Compound I-316, (R)—N-(3-(5-fluoro-2-(3-fluoro-4-(tetrahydrofuran-3-yloxy)phenylamino)pyrimidin-4-ylamino)phenyl)acrylamide], the IC50 (Homo sapiens) is below 10 nM.
Same read-out and setting: then `C=CC(=O)Nc1ccc(Nc2nc(Nc3ccccc3)ncc2C)cc1` [Compound I-39, N-(4-(5-methyl-2-(phenylamino)pyrimidin-4-ylamino)phenyl) acrylamide], with 10 to 100 nM.
Still for that read-out and setting: the result for `C=CC(=O)Nc1cccc(Nc2nc(Nc3ccc(OC)nc3)ncc2C2CC2)c1` [Compound I-167, N-(3-(5-cyclopropyl-2-(6-methoxypyridin-3-ylamino)pyrimidin-4-ylamino)phenyl)acrylamide] reads 10 to 100 nM.
Same read-out and setting: the result for `C=CC(=O)Nc1cccc(Nc2nc(Nc3ccc(OCCOC)nc3)ncc2F)c1` [Compound I-103, N-(3-(5-fluoro-2-(6-(2-methoxyethoxy)pyridine-3-ylamino)pyrimidin-4-ylamino)phenyl)acrylamide] reads below 10 nM.
For `C=CC(=O)N1Cc2ccc(Nc3nc(Nc4ccc(OC)nc4)ncc3F)cc2C1` [Compound I-165, 1-(5-(5-fluoro-2-(6-methoxypyridin-3-ylamino)pyrimidin-4-ylamino)isoindolin-2-yl)prop-2-en-1-one], the IC50 (Homo sapiens) fell in the range of 10 to 100 nM.
On the same count and under the same terms, the result for `C=CC(=O)Nc1cccc(Nc2nc(Nc3ccc4c(cnn4C(=O)OC(C)(C)C)c3)ncc2F)c1` [Compound I-151] reads below 10 nM; that for `C=CC(=O)Nc1cccc(Nc2nc(Nc3cccc(OCC(=O)N4CCOCC4)c3)ncc2F)c1` [Compound I-110, N-(3-(5-fluoro-2-(3-(2-morpholino-2-oxoethoxy)phenylamino)pyrimidin-4-ylamino)phenyl)acrylamide], 10 to 100 nM; that for `C=CC(=O)Nc1cccc(Nc2nc(Nc3ccc(OC)nc3)ncc2C(N)=O)c1` [Compound I-209, 4-(3-acrylamidophenylamino)-2-(6-methoxypyridin-3-ylamino)pyrimidine-5-carboxamide], 10 to 100 nM.
`C=C(C)C(=O)c1ccc(Nc2nc(Nc3ccccc3)ncc2F)cc1` [Compound I-185, 1-(4-(5-fluoro-2-(phenylamino)pyrimidin-4-ylamino)phenyl)-2-methylprop-2-en-1-one]: the IC50 (Homo sapiens) fell in the range of 100 to 1000 nM.
Same read-out and setting: then `C=CC(=O)N1CCC[C@@H](Oc2nc(Nc3ccc(OC)nc3)ncc2F)C1` [Compound I-180, (R)-1-(3-(5-fluoro-2-(6-methoxypyridin-3-ylamino)pyrimidin-4-yloxy)piperidin-1-yl)prop-2-en-1-one], with 100 to 1000 nM; and `C=CC(=O)Nc1cccc(Nc2nc(Nc3cccc(S(N)(=O)=O)c3)ncc2F)c1` [Compound I-160, N-(3-(5-fluoro-2-(3-sulfamoylphenylamino)pyrimidin-4-ylamino)phenyl)acrylamide], with 10 to 100 nM; and `C=CC(=O)Nc1cccc(Nc2nc(Nc3cccc(OCCN(C)C)c3)ncc2F)c1` [Compound I-233, N-(3-(2-(3-(2-(dimethylamino)ethoxy)phenylamino)-5-fluoropyrimidin-4-ylamino)phenyl)acrylamide], with below 10 nM.
The same measure, in the same setting: then `C=CC(=O)Nc1cc(Nc2nc(Nc3ccc(OCCOC)cc3)ncc2F)ccc1Cl` [Compound I-108, N-(2-chloro-5-(5-fluoro-2-(4-(2-methoxyethoxy)phenylamino)pyrimidin-4-ylamino)phenyl)acrylamide], with 10 to 100 nM; and `C=CC(=O)Nc1cccc(Nc2nc(Nc3cccc(OCCCN4CCOCC4)c3)ncc2F)c1` [Compound I-208, N-(3-(5-fluoro-2-(3-(3-morpholinopropoxy)phenylamino)pyrimidin-4-ylamino)phenyl)acrylamide], with 10 to 100 nM; and `C=CC(=O)Nc1cccc(Nc2nc(Nc3ccc(OCCOC)cc3)ncc2C(C)=O)c1` [Compound I-124, N-(3-{5-Acetyl-2-[4-(2-methoxy-ethoxy)-phenylamino]-pyrimidin-4-ylamino}-phenyl)-acrylamide], with below 10 nM.
Take `C=CC(=O)N1CCC(Nc2nc(Nc3cccc(OC)c3)ncc2F)C1` (centres unmarked) [Compound I-201, 1-(3-(5-fluoro-2-(3-methoxyphenylamino)pyrimidin-4-ylamino)pyrrolidin-1-yl)prop-2-en-1-one]: under “Homo sapiens”, the IC50 was in the range of 100 to 1000 nM.
Still for that read-out and setting: then `C=CC(=O)N(C)Cc1ccc(Nc2nc(Nc3ccc(OC)nc3)ncc2F)cc1` [Compound I-114, N-(4-(5-fluoro-2-(6-methoxypyridin-3-ylamino)pyrimidin-4-ylamino)benzyl)-N-methylacrylamide], with 10 to 100 nM; and `C=CC(=O)Nc1cccc(Nc2nc(Nc3cccc(OCCCS(C)(=O)=O)c3)ncc2F)c1` [Compound I-138, 4-(3-acrylamidophenylamino)-5-fluoro-2-(3-(3-(methylsulfonyl)propoxy)phenylamino)-pyrimidine], with below 10 nM.
